The experiment has as its target T1, human O-GlcNAcase (hOGA) (Homo sapiens, UniProt O60502).
T1 construct: gene OGA; residues 53–916, GST fusion
T1 sequence (O60502 53-916): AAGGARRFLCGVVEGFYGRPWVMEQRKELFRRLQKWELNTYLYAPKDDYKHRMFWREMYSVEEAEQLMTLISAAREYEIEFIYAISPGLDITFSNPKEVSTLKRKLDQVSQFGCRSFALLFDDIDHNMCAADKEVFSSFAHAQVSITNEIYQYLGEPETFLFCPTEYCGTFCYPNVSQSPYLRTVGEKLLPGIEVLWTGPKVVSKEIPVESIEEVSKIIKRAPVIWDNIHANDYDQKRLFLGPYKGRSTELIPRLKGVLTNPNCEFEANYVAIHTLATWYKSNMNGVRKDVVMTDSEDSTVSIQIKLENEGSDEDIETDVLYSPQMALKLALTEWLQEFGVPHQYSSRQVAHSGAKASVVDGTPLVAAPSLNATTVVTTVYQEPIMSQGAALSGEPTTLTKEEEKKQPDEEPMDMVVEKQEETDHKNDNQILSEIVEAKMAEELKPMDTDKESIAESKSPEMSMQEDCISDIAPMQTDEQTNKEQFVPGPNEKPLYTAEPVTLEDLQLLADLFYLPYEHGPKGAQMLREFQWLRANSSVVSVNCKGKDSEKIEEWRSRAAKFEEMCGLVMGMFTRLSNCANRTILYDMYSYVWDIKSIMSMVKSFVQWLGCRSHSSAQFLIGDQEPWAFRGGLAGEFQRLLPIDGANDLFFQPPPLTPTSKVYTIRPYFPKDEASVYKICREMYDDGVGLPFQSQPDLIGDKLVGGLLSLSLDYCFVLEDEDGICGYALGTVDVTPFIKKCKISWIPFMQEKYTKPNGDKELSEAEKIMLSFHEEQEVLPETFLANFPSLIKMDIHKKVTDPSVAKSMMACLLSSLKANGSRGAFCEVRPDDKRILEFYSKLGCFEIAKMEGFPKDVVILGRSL
As to the kind of experiment: steady-state kinetics with fluorogenic 4MU-GlcNAc, Lineweaver-Burk, competitive inhibition fit. It counts as biochemical.

Each structure is given as a SMILES string.

Turning to `CN(N=O)C(=O)N[C@H]1C(O)O[C@H](CO)[C@@H](O)[C@@H]1O` (stereo partly shown) [STZ, streptozotocin], the affinity, expressed as Ki, was 64 ± 3 µM.

As a reminder, the Ki is the equilibrium dissociation constant of an inhibitor or competing ligand from its target. Low readings indicate tighter binding, high ones weaker binding.

The values are drawn from article PMC2568864, “Chemical Dissection of the Link between Streptozotocin, O-GlcNAc, and Pancreatic Cell Death” (Chemistry & Biology, 2008).
